Measurements as given in patent US5985908A, “MCBI analogs of CC-1065 and the duocarmycins” (The Scripps Research Institute, priority 1998, dated 1999).
“Also recorded” adds a separate entry of the source.

Tests used:
[1] = test system: w794 DNA (SV40 DNA fragment, 144 bp); assay: DNA alkylation, thermally-induced strand cleavage of w794 DNA; format: biochemical; conditions: for selectivity and efficiency of DNA alkylation, natural enantiomers compared: 25° C., 24 hours, 254 vs 2, 266 vs 1; for concentration of detectable DNA alkylation, natural enantiomers: w794, 25° C., 24 hours (FIG. 17); for concentration of detectable DNA alkylation, unnatural enantiomers: 72 hours (FIG. 13)
Procedure: FIG. 13 illustrates thermally-induced strand cleavage of double-stranded DNA (SV40 DNA fragment, 144 bp, nucleotide no. 5238-138, clone w794) after 72 hours incubation of agent-DNA at 37° C. followed by removal of unbound agent and 30 minutes incubation at 100° C.; 8% denaturing PAGE and autoradiography. Lane 1, control DNA; lanes 2-4, (-)-MCBI-TMI (254, 1×10^-5 to 1×10^-7 M); lanes 5-7, (-)-duocarmycin SA (2, 1×10^-5 to 1×10^-7 M); lanes 8-11, Sanger G, C, A and T reactions; lanes 12-14, (-)-CC-1065 (1, 1×10^-5 to 1×10^-7 M); lanes 15-17, (-)-MCBI-CDPI2 (266, 1×10^-5 to 1×10^-7 M); lanes 18-20, (-)-MCBI-CDPI1 (262, 1×10^-5 to 1×10^-7 M); lanes 21-23 (-)-MCBI-indole2 (258, 1×10^-5 to 1×10^-7 M).
As indicated, the DNA-agent incubation was conducted at 37° C. for 24 or 48 hours, followed by removal of unbound agent and 30 minutes incubation at 100° C.; 8% denaturing PAGE and autoradiography.
FIG. 17 illustrates thermally-induced strand cleavage of double-stranded DNA (SV40 DNA fragment, 144 bp, nucleotide no. 5238-138, clone w794) after 24 hours incubation of agent-DNA at 25° C. followed by removal of unbound agent and 30 minutes incubation at 100° C; 8% denaturing PAGE and autoradiography. Lane 1, control DNA; lanes 2-4, (+)-duocarmycin SA (2, 1×10^-5 to 1×10^-7 M); lanes 5-7, (+)-MCBI-TMI (254, 1×10^-5 to 1×10^-7 M); lanes 8-11, Sanger G, C, A and T reactions; lanes 12-14, (+)-CC-1065 (1, 1×10^-5 to 1×10^-7 M); lanes 15-17, (+)-MCBI-indole2 (258, 1×10^-5 to 1×10^-7 M); lanes 18-20, (+)-MCBI-CDPI2 (266, 1×10^-5 to 1×10^-7 M).
(§1) The DNA alkylation properties of the agents were examined within four 150 base-pair segments of duplex DNA for which comparative results are available for related agents. Four clones of phage M13mp10 were selected for study and contain the SV40 nucleosomal DNA inserts w794 (nucleotide no. 5238-138) and its complement w836 (nucleotide no. 5189-91) and c988 (nucleotide no. 4359-4210) and its complement c820 (nucleotide no. 4201-4356). The alkylation site identification and the assessment of the relative selectivity among the available sites were obtained by thermally-induced strand cleavage of the singly 5'end-labeled duplex DNA after exposure to the agents. Following treatment of the end-labeled duplex DNA with a range of agent concentrations, the unbound agent was removed by EtOH precipitation of the DNA. Redissolution of the DNA in aqueous buffer, thermolysis (100° C., 30 minutes) to induce strand cleavage at the sites of DNA alkylation, denaturing high resolution polyacrylamide gel electrophoresis (PAGE) adjacent to Sanger dideoxynucleotide sequencing standards, and autoradiography led to identification of the DNA cleavage and alkylation sites. The full details of this procedure have been disclosed and discussed elsewhere (10). The DNA alkylation reaction selectivities observed under the incubation conditions of 25° C. (24 hours) for the agents detailed herein have proven identical to the alkylation selectivities observed with shorter or extended reaction periods or when the reactions were conducted at different temperatures (37 or 4° C., 0.5-7 days). As discussed below, the rates and efficiencies but not final relative efficiencies of DNA alkylation were altered by changing the reaction temperatures.

[2] = test system: duplex DNA (w794, w836, c988, c820); assay: DNA alkylation selectivity within four 150 base-pair segments of duplex DNA; format: biochemical, SV40
Text: as §1

[3] = test system: w794 5'-AATTA high affinity site; assay: Relative rate of w794 alkylation at the 5'-AATTA high-affinity site; format: biochemical, SV40; conditions: 10^-6 M; for relative rate of DNA alkylation k(254):k(CBI-TMI):k(2): 4° C., 0-48 hours
Procedure: FIG. 15 illustrates a plot of percent integrated optical density (% IOD) versus time established through autoradiography of 5'-^32 P and labeled DNA and used to monitor the relative rate of w794 alkylation at the 5'-AATTA high-affinity site for 1, 254, 258, (+)-CBI-TMI and (+)-DSA-indole2.
Representative of this difficulty in detecting distinguishing relative rates for the three classes of agents, a similar rate comparison of (+)-DSA-indole2 and (+)-MCBI-indole2 (258) conducted at 25° C. […] In sharp contrast, all three kinetically alkylate DNA much faster than the corresponding CPI-based agent (10-50×) where the distinctions are much more pronounced and easily experimentally distinguished.

L1210 = assay: In vitro cytotoxic activity; format: cell-based; conditions: for cytotoxic potency of natural enantiomer relative to unnatural enantiomer: fold, natural more potent than unnatural; for enantiomer distinction (in words): natural vs unnatural enantiomer
[4] = test system: w794 DNA (SV40 DNA fragment, 144 bp); conditions: cited from earlier work
[5] = pH 3; cited from earlier work
[6] = Solvolysis reactivity (UV), aqueous buffer-CH3OH; format: physicochemical; conditions: pH 7, 1:1 H2O-CH3OH
[7] = Solvolysis reactivity (UV), aqueous buffer-CH3OH; format: physicochemical; conditions: for acceleration of rate of solvolysis by C7 methoxy group vs. corresponding CBI agent: acid-catalyzed solvolysis; for solvolysis rate constant k / half-life: pH 3, 50% CH3OH-buffer, 25° C.; for half-life: read-out: solvolysis half-life t1/2 (converted)
Procedure: The solvolysis was followed spectrophotometrically by UV with the disappearance of the long-wavelength absorption band of the MCBI chromophore ([…]) and with the appearance of a short-wavelength absorption band (266 nm) attributable to seco-N-BOC-MCBI (FIG. 9).
N-BOC-MCBI (238, 0.1 mg) was dissolved in CH3 OH (1.5 mL) and mixed with pH 3 aqueous buffer (1.5 mL). The buffer contained 4:1:20 (v:v:v) 0.1 M citric acid, 0.2 M Na2 HPO4, and H2 O, respectively. The solvolysis solution was sealed and kept at 25° C. protected from light. The UV spectrum was measured at regular intervals every 2 hours during the first day, every 12 hours for another week, and every 24 hours for an additional week. The decrease in the long-wavelength absorption at 324 nm and the increase in the short-wavelength absorption at 266 nm were monitored, FIG. 1.
Similarly, MCBI (240, 0.1 mg) was dissolved in CH3 OH (1.5 mL) and mixed with […] (1.5 mL). The solvolysis solution was sealed and stirred at 25° C. in the dark. The UV spectrum was recorded every 24 hours for two months. The decrease in the long-wavelength absorption at 340 nm and the increase in absorption at 268 nm were monitored, FIG. 1.

SMILES: COC(=O)c1cc2c([nH]1)C(=O)C=C1N(C(=O)c3cc4cc(OC)c(OC)c(OC)c4[nH]3)CC3CC123 (single isomer, unassigned; (+)) [(+)-duocarmycin SA, reference compound]
- selectivity and efficiency of DNA alkylation, natural enantiomers compared [1]: indistinguishable
- concentration of detectable DNA alkylation, natural enantiomers [1]: 10^-6 to 10^-7 M
- concentration of detectable DNA alkylation, unnatural enantiomers ([1]; w794, 37° C.): 10^-5 M
- AT-rich alkylation selectivity, size of site, natural enantiomers [2]: 3.5 base-pair
- relative rate of DNA alkylation k(254):k(CBI-TMI):k(2) [3]: 0.9

SMILES: COc1cc2cc(C(=O)N3C[C@H]4C[C@@]45C3=CC(=O)c3ccccc35)[nH]c2c(OC)c1OC [(+)-CBI-TMI]
- relative rate of DNA alkylation k(254):k(CBI-TMI):k(2) [3]: 1.0

SMILES: COc1c(O)c2c(c3cc(C(=O)N4CCc5c4c(O)c(OC)c4[nH]c(C(=O)N6C[C@H]7C[C@@]78C6=CC(=O)c6[nH]cc(C)c68)cc54)[nH]c13)CCN2C(N)=O [(+)-CC-1065, reference compound]
- selectivity and efficiency of DNA alkylation, natural enantiomers compared [1]: essentially indistinguishable
- concentration of detectable DNA alkylation, natural enantiomers [1]: 10^-7 M
- AT-rich alkylation selectivity, size of site, natural enantiomers [2]: 5 base-pair

SMILES: COC(=O)c1cc2c([nH]1)C(=O)C=C1N(C(=O)c3cc4cc(NC(=O)c5cc6ccccc6[nH]5)ccc4[nH]3)C[C@H]3C[C@]123 [(+)-DSA-indole2]
- relative rate k(DSA-indole2)/k(MCBI-indole2) ([3]; 25° C., 0-24 hours): 1.05

SMILES: COc1ccc2c(c1)[C@@]13C[C@@H]1CN(C(=O)c1cc4cc(OC)c(OC)c(OC)c4[nH]1)C3=CC2=O [(+)-MCBI-TMI]
- selectivity and efficiency of DNA alkylation, natural enantiomers compared [1]: indistinguishable
- concentration of detectable DNA alkylation, natural enantiomers [1]: 10^-6 to 10^-7 M
- cytotoxic potency of natural enantiomer relative to unnatural enantiomer (L1210): 50 ×
- relative rate of DNA alkylation k(254):k(CBI-TMI):k(2) [3]: 1.8

SMILES: CC(C)(C)OC(=O)N1C[C@H]2C[C@@]23C1=CC(=O)c1ccccc13 [(+)-N-BOC-CBI]
- relative efficiency of DNA alkylation, natural/unnatural enantiomer (earlier agent) ([4]; (+)-N-BOC-CBI/ent-(-)-N-BOC-CBI): 5-10 ×

SMILES: COc1cc2cc(C(=O)N3C[C@@H]4C[C@]45C3=CC(=O)c3ccccc35)[nH]c2c(OC)c1OC [(-)-CBI-TMI]
- DNA alkylation distinction between (-)-CBI-TMI and ent-(-)-duocarmycin SA ([4]; prior comparison): 10 ×

SMILES: O=C1C=C2NCC3CC23c2ccccc21 (centres unmarked) [CBI, 1,2,9,9a-tetrahydrocyclopropa[c]benz[e]indol-4-one]
- solvolysis half-life t1/2 of comparison agents [5]: 930 h
- solvolysis rate constant k of comparison agents [5]: 2.07e-07 s⁻¹

SMILES: COc1ccc2c(c1)C13CC1CN(C(=O)OC(C)(C)C)C3=CC2=O (centres unmarked) [Compound 238, N-(tert-Butyloxycarbonyl)-7-methoxy-1,2,9,9a-tetrahydrocyclopropa[c]benz[e]indol-4-one]
- evidence of solvolysis at pH 7 [6]: did not show evidence of solvolysis
- acceleration of rate of solvolysis by C7 methoxy group vs. corresponding CBI agent ([7]; pH 3): 1.6 ×
- half-life relative to parent agent N-BOC-CBI (4) ([7]; pH 3): 0.6 times
- solvolysis rate constant k [7]: 2.41e-06 s⁻¹
- half-life [7]: 80 h
- alkylation selectivity of N-BOC-MCBI ([1]; both enantiomers, two base-pair AT-rich selectivity): 5'-AA>5'-TA
- DNA alkylation efficiency relative to 257-266 ([1]; fold less efficient, both enantiomers): 10^4 ×
- concentration of detectable DNA alkylation, two enantiomers of N-BOC-MCBI ([1]; w794, 37° C., 24-48 hours (FIG. 16)): 10^-2 to 10^-3 M

SMILES: COc1ccc2c(c1)C13CC1CNC3=CC2=O (centres unmarked) [Compound 240, 7-Methoxy-1,2,9,9a-tetrahydrocyclopropa[c]benz[e]indol-4-one]
- acceleration of rate of solvolysis by C7 methoxy group vs. corresponding CBI agent ([7]; pH 3): 1.6 ×
- solvolysis rate constant k [7]: 5.76e-07 s⁻¹
- half-life [7]: 334 h
- solvolysis reactivity relative to DSA ([7]; pH 3, more reactive than DSA): 6-7 ×
- relative solvolysis reactivity (in words) ([7]; pH 3, vs. agent named): only slightly more reactive than CBI; also recorded: less reactive than CPI

SMILES: COc1ccc2c(c1)C13CC1CN(C(=O)c1cc4cc(OC)c(OC)c(OC)c4[nH]1)C3=CC2=O (centres unmarked) [Compound 254]
- concentration of detectable DNA alkylation, unnatural enantiomers ([1]; w794, 37° C.): 10^-5 M
- AT-rich alkylation selectivity, size of site, natural enantiomers [2]: 3.5 base-pair
- enantiomer distinction (in words) (L1210; listed as MCBI-TMI): analogous distinctions but somewhat smaller than those observed with CBI-TMI

SMILES: COc1ccc2c(c1)C13CC1CN(C(=O)c1cc4c5c(ccc4[nH]1)N(C(N)=O)CC5)C3=CC2=O (centres unmarked) [Compound 262]
- AT-rich alkylation selectivity, size of site, natural enantiomers [2]: 3.5 base-pair
- cytotoxic potency of natural enantiomer relative to unnatural enantiomer (L1210): 1-3 ×
- enantiomer distinction (in words) (L1210): essentially indistinguishable
- enantiomer distinction (in words) (L1210; listed as MCBI-CDPI1): nearly equipotent

SMILES: COc1ccc2c(c1)C13CC1CN(C(=O)c1cc4c5c(ccc4[nH]1)N(C(=O)c1cc4c6c(ccc4[nH]1)N(C(N)=O)CC6)CC5)C3=CC2=O (centres unmarked) [Compound 266]
- concentration of detectable DNA alkylation, unnatural enantiomers ([1]; w794, 37° C.): 10^-6 to 10^-7 M
- cytotoxic potency of natural enantiomer relative to unnatural enantiomer (L1210): 1-3 ×
- enantiomer distinction (in words) (L1210): essentially indistinguishable
- enantiomer distinction (in words) (L1210; listed as MCBI-CDPI2): nearly equipotent

SMILES: CC(C)(C)OC(=O)N1CC2CC23C1=CC(=O)c1ccccc13 (centres unmarked) [N-BOC-CBI]
- solvolysis half-life t1/2 of comparison agents [5]: 133 h

SMILES: Cc1c[nH]c2c1C13CC1CN(C(=O)OC(C)(C)C)C3=CC2=O (centres unmarked) [N-BOC-CPI]
- solvolysis half-life t1/2 of comparison agents [5]: 36.7 h
